{
  "source": "patent US8377883B2",
  "about": "“Peptide for anti-angiogenesis and use thereof” (Beijing Institute for Cancer Research, priority 2006, dated 2013)",
  "key": {"[1]": {"tested_on": "human umbilical vein endothelial cells (HUVECs)", "experiment": "MTT proliferation of HUVECs", "type": "cell-based", "settings": "25 μg/ml PBS, MTT at 24, 48, 72, 96 hours", "experimental": "In order to further investigate the effects of FpAT on the proliferation of various vascular endothelial cells, a cell proliferation suppression experiment was carried out using MTT method in this example.\nHuman umbilical cord samples (obtained from Beijing Obstetrics & Gynecology Hospital) was digested with 0.1% collagenase I (available from GIBCO BRL company), followed by a centrifugation (1000 rpm, 10 minutes) to collect human umbilical vein endothelial cells (HUVECs). After suspended in 20% FCS/RPMI1640, the cells were transferred into plastic bottles for culture in CO2 incubator (37° C., 5% CO2). Twelve hours later, unattached cells were discarded by changing medium, and then the remaining cells were cultured conventionally with the medium changed every 3 days. The cultured HUVECs were digested with 0.04% trypsin-EDTA, and inoculated into 96-well plate at 2×10^3 cells/well. After 24 hours of culture, the vehicle (PBS) and FpAT (25 μg/ml PBS) were added separately, with 4 parallel wells per group. […] After mixed well, OD value (measured at a wavelength of 570 nm) of each well was measured in a microplate reader, and the cell suppression rates were calculated according to the following formula: cell suppression rate=(mean OD value of blank control group-mean OD value of treated group)/mean OD value of blank control group×100%."}, "osteosarcoma S180 cells": {"tested_on": "osteosarcoma S180 cells", "experiment": "Tumor suppression in osteosarcoma S180 cells tumor-bearing mouse model (Example 4)", "type": "in vivo, mice of Kunming strain", "settings": "50 m/1000 PBS/injection, angulus oculi medialis vein daily, 7 times; vs PBS control, P<0.05", "experimental": "To confirm the biological effects of FpAT on the growth of mice deriving tumor in mice in vivo, a tumor suppression experiment was carried out in this example using liver cancer H22 cells tumor-bearing mouse model of mice of Kunming strain and osteosarcoma S180 cells tumor-bearing mouse model of mice of Kunming strain. Forty 5-week old mice of Kunming strain purchased from Animal Center Of Chinese Academy Of Medical Sciences were inoculated subcutaneously in forelimb with mouse liver cancer H22 cells (National Institute for the Control of Pharmaceutical and Biological Products) (5×10^6/100 μl/mouse) or osteosarcoma S180 cells (National Institute for the Control of Pharmaceutical and Biological Products) (5×10^6/100 μl/mouse). On the next day after inoculation, each kind of inoculated cells were divided into 2 groups randomly with 10 mice per group. FpAT ([…]) or vehicle (the solvent for peptide) control (PBS:100 μl/injection) were injected in angulus oculi medialis vein daily, 7 times in total. The mice were sacrificed by dislocating the neck on the next day after administration was stopped, and the tumors were taken and weighed for a statistical analysis."}, "[2]": {"tested_on": "chick chorioallantoic membrane vessel", "experiment": "Proliferation of chick chorioallantoic membrane vessel", "settings": "10 μl of 1 μg/μL on glass fiber filter membrane, 24 hours", "experimental": "In this example an experiment of proliferation of chick chorioallantoic membrane vessel was carried out to test suppressing effects of FpAT on angiogenesis.\nThe test was performed according to the method described in the reference “Fu Shengfa, Lu yinglin, Zhang Chaoshan et al., A chick chorioallantoic membrane technique to test function of vascular growth factors, Bulletin of the Academy of Military Medical Sciences 1993, 17:294-97”. Fresh fertilized hen eggs were immersed into 0.1% benzalkonium bromide solution at 38° C. for 2 minutes, and then incubated in an incubator at 37.5° C. in a humidity of 60-70% for 3 days. Then the eggs with shell removed were transferred to plate and cultured. The samples were separated into groups and administered when the allantoic membrane grew to about 2 cm^2, 5 chicken embryos per group. 10 μl of FpAT (1 μg/μL), PBS (negative control) was dropped on a glass fiber filter membrane of Φ4 mm, which was placed at distal end of chorioallantoic membrane, and cultured for 24 hours. The results were observed and recorded by taking photos. The experiment was repeated twice."}, "[3]": {"tested_on": "human umbilical vein endothelial cells (HUVECs)", "experiment": "Three-dimensional tubular structure formation of HUVECs", "type": "cell-based", "settings": "10, 25, 100 μg/ml PBS; 48, 72, 96 hours", "experimental": "Human umbilical cord samples (obtained from Beijing Obstetrics & Gynecology Hospital) was digested with 0.1% collagenase I (available from GIBCO BRL company), followed by a centrifugation (1000 rpm, 10 minutes) to collect human umbilical vein endothelial cells (HUVECs). After suspended in 20% FCS/RPMI1640, the cells were transferred into plastic bottles for culture in CO2 incubator (37° C., 5% CO2). Twelve hours later, unattached cells were discarded by changing medium, and then the remaining cells were cultured conventionally with the medium changed every 3 days. The cultured HUVECs were digested with 0.04% trypsin-EDTA, and inoculated into 24-well plate at 2×10^4 cells/well; and the vehicle (PBS) and FpAT (10 μg/ml PBS, 25 μg/ml PBS, 100 μg/ml PBS) were added separately, with 3 parallel wells per group."}, "[4]": {"tested_on": "D2F2 cells (Balb/c mouse-derived breast carcinoma cell)", "experiment": "MTT proliferation of D2F2 cells", "type": "cell-based", "settings": "25 μg/ml PBS, ninety six hours", "experimental": "To investigate direct effects of FpAT on tumor cells in vitro, the influence of FpAT on the proliferation of D2F2 cell (Balb/c mouse-derived breast carcinoma cell) was examined using MTT in this example.\nD2F2 cells (Mahoney K H, Miller B E, Heppner G H. FACS quantitation of leucine aminopeptidase and acid phosphatase on tumor-associated macrophages from metastatic and nonmetastatic mouse mammary tumors. J Leukoc Biol. 1985 November; 38(5): 573-85.) were cultured conventionally. The cultured D2F2 cells were digested with 0.04% trypsin-EDTA, and inoculated into 96-well plate at 3×10^3 cells/well; after 24 hours of culture, PBS and FpAT (25 μg/ml PBS) were added separately, with 4 parallel wells per group. Ninety six hours later, 20 μl MTT solution of mass concentration of 5 mg/ml was added to each well. After the culture was performed continuously for 4 hours, the original culture medium was discarded and 200 μl DMSO was added to each well, and then it was shaken for 15 minutes. After mixed well, OD value (measured at a wavelength of 570 nm) of each well was measured in a microplate reader, and the cell suppression rates were calculated according to the following formula: cell suppression rate=(mean OD value of blank control group−mean OD value of treated group)/mean OD value of blank control group×100%."}},
  "data": [
    {"substance": "H2N-Asp-Ser-Gly-Glu-Gly-Asp-Phe-Leu-Ala-Glu-Gly-Gly-Gly-Val-Arg-COOH (H-DSGEGDFLAEGGGVR-OH; listed as Homo sapiens) [FpAT, fibrinopeptide A truncated, carboxyl terminal 15 amino acids of fibrinopeptide A]", "values": [
      {"measurement": "suppressing rate of HUVEC proliferation", "setting": "[1]", "value": 40.1, "unit": "%"},
      {"measurement": "growth of osteosarcoma S180 cells in vivo (tumor mass)", "setting": "osteosarcoma S180 cells", "value": "could suppressed the growths"},
      {"measurement": "blood vessel distribution and original blood vessel", "setting": "[2]", "value": "inducing disorder of blood vessel distribution and atrophy of original blood vessel"},
      {"measurement": "blood vessel formation", "setting": "[2]", "value": "suppressing remarkably blood vessel formation"},
      {"measurement": "ability to form a three-dimensional and tubular structure of HUVECs", "setting": "[3]", "value": "can suppress specifically"},
      {"measurement": "suppression of D2F2 cell proliferation", "setting": "[4]", "value": "can not suppress D2F2 cells in vitro"}
    ]}
  ]
}
